# From patent US6991778B2, “Use of dendrimers polyl-functionalized with nitroxide groups as contrast enhancing agents in MRI imaging of joints and injectable compositions comprising them” (Nitrosci, priority 1999, dated 2006)
# Like-named read-outs stand apart in the source and are kept apart here.
# Experiments:
# [1] = rabbit; cited from earlier work
# [2] = rabbit joints; Bacic, et al. 1997; cited from earlier work
# [3] = cited from earlier work
# [4] = in vivo, iv; cited from earlier work
# [5] = Relaxivities (k1) of nitroxides and dendrimers; type: physicochemical; design: unit not given here; conditions: room temperature, 1.5 T
# [6] = In vitro rate of nitroxide reduction by superoxide in the presence of a thiol (EPR); type: in vitro ADME; conditions: room temperature; nitroxide 50 micromolar, cysteine 200 micromolar, superoxide flux 10 micromolar/min, pH 7.4
# Source text: In vitro rate of nitroxide reduction (Table 1) was undertaken using superoxide in the presence of a thiol, as an in vitro model for activated phagocytic cells. G. M. Rosen, B. E. Britigan, M. S. Cohen, S. P. Ellington and M. J. Barber, Biochim. Biophys. Acta, 969:236-241, 1988; G. M. Rosen and E. J. Rauckman. Biochem. Pharmacol. 26: 675-678, 1977; S. Pou, P. L. Davis, G. L. Wolf and G. M. Rosen, Free Rad. Res. 23: 353-364, 1995; and E. Finkelstein, G. M. Rosen and E. J. Rauckman, Biochim. Biophys. Acta, 802:90-98, 1984. For these determinations, nitroxides [S. Pou, et al, E. Finkelstein, et al., supra, and H. Kuthan, V. Ullrich and R. Estabrook, Biochem. J. 203: 551-558, 1982, (50 micromolar) were added to cysteine (200 micromolar) in the presence of a continued flux of superoxide (10 micromolar/min), generated by the action of xanthine oxidase on xanthine (400 micromolar) in Chelexed sodium phosphate buffer (50 mM, pH 7.4) The rate of superoxide production was estimated by following the superoxide dismutase (30 U/mL) inhibitable reduction of ferricytochrome c at […] using a molar absorbance of 21 mM^−1 cm^−1. H. Kuthan et al. supra. Rates of nitroxide reduction were monitored by EPR spectroscopy at ambient temperature by observing the change of the low-field (the broadened EPR spectrum of each dendrimer-linked nitroxide prevented the use of other peaks to measure rates of reduction) as a function of time.
# [7] = MRI of shoulder joints after intra-articular injection; type: in vivo, human; conditions: 1 mL of 100 μM solution into both shoulder joints, 1.5 Tesla
# Method: Into both shoulder joints of a person (45-55 kg), with post-trauma chronic soreness in one of the shoulder joint is injected 1 mL of a stock 100 μM sterile solution in 0.9% normal saline of a dendrimer of Formula (I) containing 32 terminal PROXYL-3-carbamido nitroxide groups using a (gauge 25) needle. Then position the patent in a MR imager (1.5 Tesla MR system, SIGNA; General Electric Medical Systems, Milwaukee, Wis.) and obtain a scan of both joints in the conventional manner.
# [8] = MRI of rabbit knee joint after intra-articular injection; type: in vivo; conditions: 1 mL of stock solution into rabbit knee joint
# Method: Rabbits (2.8-3.5 kg) to be used for MRI experiments are sedated with intramuscular Ketamine and Xylazine. Anesthesia is maintained with i. v. sodium pentobarbital as required. Under fluoroscopic guidance, a needle (gauge 25) is placed into the knee joint of a thus-anesthetized rabbit and 1 mL of a stock solution of a nitroxyl functionalized dendrimer of Formula (I) containing 32 nitroxyl functionalizing groups. The rabbit's injected joint is then positioned in a MR imager.
Reduction Rate [6] [µM/min],Compound,Relaxivity (k1) [5],also measured
–,"CC1(C)CC(C[N+](C)(C)C)C(C)(C)N1[O].[I-] (stereo not drawn) [3-trimethylaminomethyl-2,2,5,5-tetramethyl-1-pyrrolidinyloxyl iodide]",–,in vivo stability [1]: remarkable; affinity toward proteoglycans [2]: high affinity
–,"O=C([O-])CN(CCN(CC(=O)[O-])CC(=O)O)CCN(CC(=O)[O-])CC(=O)O.[Gd+3] [Gd(DTPA), gadolinium (Gd)-DTPA]",4.94,"relaxivity ([3]; as reported by Keana, et al.): 4.95 mM⁻¹ s⁻¹; relaxivity ([3]; room temperature, 1.5 T): ca. 5; equilibration throughout the cartilage [4]: ca. 5 hr"
–,DAB-dendrimer-(NH-3-CH2-PROXYL)4 [[15]],0.82,–
7.93,DAB-dendrimer-(NH-3-CO-PROXYL)4 [[5]],0.82,–
0.00,DAB-dendrimer-(NH-3-CO-PROXYL)8 [[7]],1.69,–
0.00,DAB-dendrimer-(NH-3-CO-PROXYL)16 [[8]],3.19,–
0.00,DAB-dendrimer-(NH-3-CO-PROXYL)32 [[9]],5.73,status of the articular cartilage in the MR image [7]: readily identifiable; articular cartilage in the MR image [8]: readily identifiable
7.54,TREN-dendrimer-(NH-3-CO-PROXYL)3 [[6]],0.57,–

Compound,Reduction Rate [6] [µM/min],Relaxivity (k1) [5],also measured
"CC1(C)CC(C(=O)O)C(C)(C)N1[O] (stereo not drawn) [[1], 3-carboxy-2,2,5,5-tetramethyl-1-pyrrolidinyloxyl, reference compound]",0.52,0.19,–
